Counter-ions that a name gives are not always drawn. Like-named read-outs stand apart in the source and are kept apart here.
What was measured:
[1] = biological target: EDG3 (Homo sapiens, UniProt Q99500); assay: 35S-GTPγS binding assay, EDG3 (S1P3); type: biochemical; settings: Table 1a
Experimental: (§1) a) 35S-GTPγS Binding Assay GTP-γ-^35S binding was performed using […]15 μg protein of cell membranes suspended in 50 mM tris-HCl pH 7.5 containing 10 mM MgCl2, 100 mM NaCl and 10 μM GDP. The radioligand was 0.025 nM [^35S] GTP-γ-S and non specific binding determined in the presence of 10 μM non-radioactive GTP-γ-S. […] The maximal stimulation elicited by S1P was taken as a reference to define full or partial agonism and calculate the intrinsic activity (i.a.) of compounds.

[2] = biological target: EDG5 (Homo sapiens, UniProt O95136); assay: 35S-GTPγS binding assay, EDG5 (S1P2); type: biochemical; settings: Table 1a
EDG5, sequence (O95136 whole entry, species assumed): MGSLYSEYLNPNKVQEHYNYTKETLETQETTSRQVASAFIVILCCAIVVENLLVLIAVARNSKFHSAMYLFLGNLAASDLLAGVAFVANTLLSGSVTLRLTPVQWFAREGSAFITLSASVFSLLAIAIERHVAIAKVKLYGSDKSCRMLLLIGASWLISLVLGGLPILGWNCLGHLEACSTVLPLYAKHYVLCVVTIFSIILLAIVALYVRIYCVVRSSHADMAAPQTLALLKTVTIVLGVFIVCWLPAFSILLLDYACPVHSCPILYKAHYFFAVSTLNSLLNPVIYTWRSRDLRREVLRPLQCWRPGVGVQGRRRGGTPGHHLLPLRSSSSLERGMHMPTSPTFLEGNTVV
Experimental: as §1

[3] = biological target: hERG channel (Homo sapiens, UniProt Q12809); assay: biochemical
hERG channel, sequence (Q12809 whole entry): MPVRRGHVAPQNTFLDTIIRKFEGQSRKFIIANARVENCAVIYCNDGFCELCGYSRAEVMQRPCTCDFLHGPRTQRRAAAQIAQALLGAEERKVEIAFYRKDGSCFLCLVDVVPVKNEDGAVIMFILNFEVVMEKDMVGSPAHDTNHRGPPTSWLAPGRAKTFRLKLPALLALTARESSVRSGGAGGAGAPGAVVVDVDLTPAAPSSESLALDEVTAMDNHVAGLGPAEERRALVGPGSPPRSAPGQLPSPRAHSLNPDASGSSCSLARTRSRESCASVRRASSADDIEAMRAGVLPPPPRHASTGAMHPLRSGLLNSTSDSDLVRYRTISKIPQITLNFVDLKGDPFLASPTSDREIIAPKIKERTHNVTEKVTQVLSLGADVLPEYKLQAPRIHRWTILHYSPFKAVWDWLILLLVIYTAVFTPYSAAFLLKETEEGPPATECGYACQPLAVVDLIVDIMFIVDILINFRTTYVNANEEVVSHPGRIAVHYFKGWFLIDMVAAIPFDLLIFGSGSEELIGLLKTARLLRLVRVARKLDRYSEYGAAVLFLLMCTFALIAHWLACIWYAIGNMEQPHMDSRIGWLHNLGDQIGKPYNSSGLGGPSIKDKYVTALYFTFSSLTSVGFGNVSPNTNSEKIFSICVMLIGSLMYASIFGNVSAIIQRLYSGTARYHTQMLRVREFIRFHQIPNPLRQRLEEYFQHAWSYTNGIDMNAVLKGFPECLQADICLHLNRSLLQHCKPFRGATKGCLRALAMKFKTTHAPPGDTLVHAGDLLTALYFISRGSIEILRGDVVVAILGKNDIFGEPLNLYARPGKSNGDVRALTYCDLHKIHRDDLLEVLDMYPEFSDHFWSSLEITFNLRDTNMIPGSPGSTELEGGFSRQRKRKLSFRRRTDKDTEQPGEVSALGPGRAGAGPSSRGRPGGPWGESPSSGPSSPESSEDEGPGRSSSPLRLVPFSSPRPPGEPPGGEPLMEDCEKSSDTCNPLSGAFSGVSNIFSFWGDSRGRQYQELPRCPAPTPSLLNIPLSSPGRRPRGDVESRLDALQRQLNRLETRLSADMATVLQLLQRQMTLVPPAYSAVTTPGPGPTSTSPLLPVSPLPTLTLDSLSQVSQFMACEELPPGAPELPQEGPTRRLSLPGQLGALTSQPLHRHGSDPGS
Experimental: c) Evaluation of Activity for hERG Blockade Liability
HEK293 cells were stably transfected with the human hERG receptor gene. Binding assays were performed using 5 μg of cell membranes expressing hERG channel resuspended in 10 mM Hepes pH 7.4, 135 mM NaCl, 60 mM DL-Aspartic Acid Potassium, 1 mM EGTA, 0.8 mM MgCl2, 10 mM (D+) Glucose, 0.01% BSA, in a final volume of 200 μL. For [^3H] […] Non specific binding was estimated in the presence of 1 μM Astemizole. The reaction was terminated by filtration through Durapore BV 1.2 μm filters pre-soaked in 3% polyethyleneimine 10 minutes at room temperature. Filters were rinsed 2 times with 250 μL of ice cold 25 mM Tris-HCl pH 7.4 buffer. The filter-bound radioactivity was measured in a liquid scintillation counter with 50 μL of scintillation fluid. [^3H]
The hERG binding investigated by use of [^3H]

[4] = biological target: EDG-1 (Homo sapiens, UniProt P21453); assay: 35S-GTPγS binding assay, EDG1 (S1P1); type: biochemical; parameters: expressed in transfected cells
EDG-1, sequence (P21453 whole entry): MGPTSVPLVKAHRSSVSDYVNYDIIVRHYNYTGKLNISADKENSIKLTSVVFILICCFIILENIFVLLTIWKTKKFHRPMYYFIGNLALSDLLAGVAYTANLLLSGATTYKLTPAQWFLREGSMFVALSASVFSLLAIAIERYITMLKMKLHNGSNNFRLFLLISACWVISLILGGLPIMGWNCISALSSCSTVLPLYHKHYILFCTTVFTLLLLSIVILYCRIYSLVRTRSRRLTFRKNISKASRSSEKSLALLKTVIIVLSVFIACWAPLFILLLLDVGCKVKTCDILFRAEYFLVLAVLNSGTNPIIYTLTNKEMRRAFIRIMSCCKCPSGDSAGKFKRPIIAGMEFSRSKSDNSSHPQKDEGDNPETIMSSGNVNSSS
Experimental: as §1

[5] = test system: circulating lymphocytes; assay: Assessment of lymphopenia in rats; type: in vivo
Experimental: b) Assessment of Lymphopenia
Lymphopenia was assessed in vivo. Experiments were done in non-fasted/fasted Swiss mice and/or: Sprague Dawley rats, Wistar rats, Beagle dogs, Cynomolgus monkeys. Compounds were administered orally in suspension in carboxymethyl-cellulose 0.5-1% in water (W/V). Blood was taken on anesthetized/non anaesthetized animal (4% isoflurane) and samples collected in EDTA-containing vacuum tubes from 1 h 30 to 72 hours post administration for lymphopenia measurement.
After 10 minutes stirring, cells were counted using ABC Vet haemocytometer (Scil vet animal Care) for rodent and dog or ADVIA 120 hematology analyzer for monkeys. Pharmacodynamic effect was measured by the decrease in circulating lymphocytes by test item treatment in comparison with haematological parameters of control animals or versus predosing in the same animals.

[6] = Table 1a, read-out: EC50 (nM) EDG1
[7] = comparative examples table, read-out: EDG1 EC50

EDG3, sequence (Q99500 whole entry, species assumed): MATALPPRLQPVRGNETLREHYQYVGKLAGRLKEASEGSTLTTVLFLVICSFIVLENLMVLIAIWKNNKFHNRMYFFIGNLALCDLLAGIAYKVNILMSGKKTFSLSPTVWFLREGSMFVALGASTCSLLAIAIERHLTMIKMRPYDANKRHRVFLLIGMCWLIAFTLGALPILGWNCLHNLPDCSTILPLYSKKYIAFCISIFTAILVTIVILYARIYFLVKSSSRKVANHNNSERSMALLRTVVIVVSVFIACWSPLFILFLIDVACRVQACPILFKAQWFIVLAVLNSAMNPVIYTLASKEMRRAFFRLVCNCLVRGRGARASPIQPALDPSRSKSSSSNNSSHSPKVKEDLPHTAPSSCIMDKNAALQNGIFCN

Row | EC50 [1] [nM] | EC50 [2] [nM] | EC50 [4, 6] [nM] | EC50 ([4]; Table 1b, read-out: EDG1 EC50) [nM] | EC50 [4, 7] [nM] | SMILES | Ki [3] [nM] | Lymphopenia in rats % lymphopenia at given dose at 24 hrs ([5]; 0.3 mpk, 24 hrs, Sprague-Dawley female) | Lymphopenia in rats % lymphopenia at 1 mpk/p.o dose 8 Hrs [5] [%] | Lymphopenia in rats % lymphopenia at 1 mpk/p.o dose 24 Hrs [5] [%]
1 | > 1000 | > 1000 | < 1 | < 1 |  | CC1(C(=O)O)CCN(Cc2ccc(-c3noc(-c4ccc(C5CCCCC5)c(Cl)c4)n3)cc2)CC1 [Example 1, 1-{4-[5-(3-chloro-4-cyclohexylphenyl)-[1,2,4]-oxadiazol-3-yl]benzyl}-4-methylpiperidine-4-carboxylic acid] | > 10000 |  |  | 
2 |  |  | < 1 | < 1 |  | CC(C)Cc1ccc(-c2nc(-c3ccc(CN4CCC(C)(C(=O)O)CC4)cc3)no2)cc1Cl [Example 2, 1-{4-[5-(3-chloro-4-isobutylphenyl)-[1,2,4]-oxadiazol-3-yl]benzyl}-4-methylpiperidine-4-carboxylic acid, tert-butylamine salt] | > 10000 | 76% (0.3 mpk) |  | 
3 | 581 | > 1000 | < 1 | < 1 |  | CC1(C(=O)O)CCN(Cc2ccc(-c3noc(-c4ccc(C5CCCC5)c(Cl)c4)n3)cc2)CC1 [Example 7, 1-{4-[5-(3-chloro-4-cyclopentylphenyl)-[1,2,4]-oxadiazol-3-yl]benzyl}-4-methylpiperidine-4-carboxylic acid] | > 10000 |  |  | 
4 | > 1000 | > 1000 | < 1 | < 1 |  | COCC1(C(=O)O)CCN(Cc2ccc(-c3noc(-c4ccc(C5CCCC5)c(Cl)c4)n3)cc2)CC1 [Example 9, 1-{4-[5-(3-chloro-4-cyclopentylphenyl)-[1,2,4]-oxadiazol-3-yl]benzyl}-4-methoxymethylpiperidine-4-carboxylic acid tert-butyl amine salt] | > 10000 |  |  | 
5 | > 1000 | > 1000 | < 1 | < 1 |  | CCCC1(C(=O)O)CCN(Cc2ccc(-c3noc(-c4ccc(CC(C)C)c(Cl)c4)n3)cc2)CC1 [Example 13, 1-{4-[5-(3-chloro-4-isobutylphenyl)-[1,2,4]-oxadiazol-3-yl]benzyl}-4-propylpiperidine-4-carboxylic acid tert-butyl amine salt] | > 10000 |  |  | 
6 |  |  |  | < 10 |  | CC(C)Cc1ccc(-c2nc(-c3ccc(CN4CCC(CCCN5CCCCC5)(C(=O)O)CC4)cc3)no2)cc1Cl [Example 65, 1-{4-[5-(3-Chloro-4-isobutyl-phenyl)-[1,2,4]-oxadiazol-3-yl]-benzyl}-4-(3-piperidin-1-yl-propyl)-piperidine-4-carboxylic acid tert-butyl amine salt] |  |  |  | 
7 |  |  |  | < 10 |  | CC(C)Cc1ccc(-c2nc(-c3ccc(CN4CCC(CCCN5CCCC5)(C(=O)O)CC4)cc3)no2)cc1Cl [Example 66, 1-{4-[5-(3-Chloro-4-isobutyl-phenyl)-[1,2,4]-oxadiazol-3-yl]-benzyl}-4-(3-pyrrolidin-1-yl-propyl)-piperidine-4-carboxylic acid tert-butyl amine salt] |  |  |  | 
8 |  |  |  |  | 11.7 to 19.8 | O=C(O)C1CCN(Cc2ccc(-c3noc(-c4ccc(-c5ccccc5)c(F)c4)n3)cc2)CC1 [compound 1] |  |  | 18 | −54
9 |  |  |  |  | 57.2 | CC(C)Cc1ccc(-c2nc(-c3ccc(CN4CCC(C(=O)O)CC4)cc3)no2)cc1.Cl [compound 2] |  |  | −25 | −101
10 |  |  |  |  | 56.6 | CC(C)Cc1ccc(-c2nc(-c3ccc(CN4CCC[C@@H](C(=O)O)C4)cc3)no2)cc1 [compound 3] |  |  | −24 | −58
11 |  |  |  |  | 13.9 | Cl.O=C(O)C1CCN(Cc2ccc(-c3noc(-c4ccc(C5CCCCC5)cc4)n3)cc2)CC1 [compound 4] |  |  | 2 | −57
